Data taken from publication PMC5742776 (Foods, 2017).

Assays:
Assay type in all cases: biochemical
renin (EC 3.4.23.15) = experiment: Renin Inhibition Screening Assay; settings: synthesised peptides, 1 mg/mL; 10 μL sample at 1 mg/mL DMSO + 20 μL substrate, 150 μL buffer, 10 μL renin; 37 °C, 15 min; fluorescence 340/500 nm; mean of triplicate samples
Experimental: Protein isolates from all seven oat varieties and selected synthesised peptides were tested in vitro for renin inhibition activity. The Renin Inhibition Screening Assay (Cambridge BioSciences, Cambridge, UK) was carried out as per the manufacturer’s instructions. Briefly, 10 μL of each sample inhibitor at a concentration of 1 mg/mL dimethyl sulfoxide (DMSO) was added to 20 μL renin substrate, 150 μL assay buffer, and 10 μL renin, in triplicate. The samples were incubated at 37 °C for 15 min, and read with excitation wavelengths of 340 nm and emission wavelengths of 500 nm. Fluorescence was read using a FLUOstar Omega microplate reader (BMG LABTECH GmbH, Offenburg, Germany). The percentage inhibition was calculated using the following equation:% Renin inhibition = 100% Initial activity − Inhibitor × 100/100% Initial activity (1)

[1] = system: angiotensin-I-converting enzyme (ACE-I; EC 3.4.15.1); experiment: ACE-I inhibition assay (ACE Kit-WST); settings: 1 mg/mL, 37 °C, 1 h, absorbance 450 nm
Experimental: Protein isolates from all seven oat varieties and selected synthesised peptides were tested in vitro for ACE-I inhibition. The bioassay (ACE Kit—WST, Dojindo Laboratories, Kumamoto, Japan) was carried out according to the manufacturer’s instructions. First, 20 μL of each sample inhibitor at a concentration of 1 mg/mL ddH2O was added to 20 μL substrate and 20 μL enzyme working solution in triplicate. Samples were incubated at 37 °C for 1 h. Each well then had 200 μL indicator working solution added, followed by a further incubation at room temperature for 10 min. Absorbance at 450 nm was read using a FLUOstar Omega microplate reader (BMG LABTECH GmbH, Offenburg, Germany). The percentage inhibition was calculated using the following equation:% ACE-I inhibition = 100% Initial activity − Inhibitor × 100/100% Initial activity(2)

[2] = system: dipeptidyl peptidase-IV (DPP-IV; EC 3.4.14.5); settings: synthesised peptides, 1 mg/mL; 10 μL sample at 1 mg/mL assay buffer + 30 μL buffer, 10 μL DPP-IV, 50 μL substrate; 37 °C, 30 min; fluorescence 355/460 nm; mean of triplicate samples
Experimental: Protein isolates from all seven oat varieties and selected synthesised peptides were tested in vitro for DPP-IV inhibition. […] First, 10 μL of each sample inhibitor at a concentration of 1 mg/mL assay buffer was added to 30 μL diluted assay buffer, 10 μL diluted DPP-IV, and 50 μL substrate solution, in triplicate. Samples were incubated at 37 °C for 30 min. Fluorescence was read with excitation wavelengths of 355 nm and emission wavelengths of 460 nm using a FLUOstar Omega microplate reader (BMG LABTECH GmbH, Offenburg, Germany). The percentage inhibition was calculated using the following equation:% DPP-IV inhibition = 100% Initial activity − Inhibitor × 100/100% Initial activity (3)

[3] = synthesised peptides, 20 μL sample at 1 mg/mL ddH2O + 20 μL substrate, 20 μL enzyme, mean of triplicate samples

| % ACE-I inhibition [1, 3] | Molecule | also measured |
| --- | --- | --- |
| 53 ± 41.2% | IFFFL [chemically synthesised peptide; Avenin f(3–7), ficin] | % Renin inhibition (renin (EC 3.4.23.15)): 17.1% (±2.6%) |
|  | FPIL [chemically synthesised peptide; 11S globulin f(364–367), ficin] | % DPP-IV inhibition [2]: 13.1 ± 3.2% |
|  | C[C@H](CS)C(=O)N1CCC[C@H]1C(=O)O [captopril, reference compound] | % ACE-I inhibition ([1]; positive control, triplicate): 97.7% (±23.2%) |
| 97 ± 16.2% | FLLA [chemically synthesised peptide; 11S globulin/12S globulin f(203–206), papain] |  |
| 48.9 ± 7.8% | FEPL [chemically synthesised peptide; 12S globulin f(53–56), papain] |  |
